In patent US8143447B2, “Treatment of cancer” (BiPar Sciences, Inc., priority 2006, dated 2012):
Entries after “also recorded” stand apart in the source; their conditions may differ.

Legend:
[1] = BA metabolite identification by LC/MS/MS from canine plasma; type: in vivo, dog; details: canine plasma after BA administration; equivalents measured using BSI-201 in the 1 μg/ml spike sample as reference standard
Method: (§1) Plasma samples were obtained from dog, rat and mouse studies, in which animals were administered 4-iodo-3-nitrobenzamide (BA). Plasma and tumor samples were prepared for HPLC injection by precipitating plasma (50 μl) with 3× volumes (150 μl) of acetonitrile. Tissue samples were prepared for HPLC injection by adding 1 μl of acetonitrile per mg of tissue, then homogenizing with an electric homogenizer. Following centrifugation, 150 μl of each supernatant was evaporated to dryness, reconstituted in 50 μl of 0.2% formic acid in water and analyzed by chromatography and mass spectrometry techniques (LC/MS/MS conditions). LC/MS/MS conditions are: HPLC (Shimadzu VP System); Mobile Phase: 0.2% formic acid in water (A) and 0.18% formic acid in methanol (B); Column: 1×50 mm Thermo BetaBasic C18 column; Injection volume: 25 μL; Gradient: 0-60% B in 30 minutes; Flow Rate: 100 μL/min; Mass Spectrometer: Applied Biosystems/MDS SCIEX Q-STAR; Interface: IonSpray split at 1/10; Parent Ion Scan: TOF Positive from 200-900 amu; Product Ion Scan: TOF Product Ion from 60-900 amu of most intense Ion in Parent Ion Scan; TOF calibration: Externally calibrated using Renin Substrate. Results of metabolite identification from dog and mouse plasma are depicted in Tables 1-3, as follows: […]

[2] = BA metabolite identification by LC/MS/MS from murine plasma; type: in vivo, mouse; details: murine plasma after BA administration; equivalents measured using BSI-201 in the 1 μg/ml spike sample as reference standard
Method: as §1

[3] = BA metabolite identification by LC/MS/MS from canine plasma and red blood cells; type: in vivo, dog; details: equivalents by 270 nm UV peak area of BSI-201 in the 5 μg/ml spike sample
Method: as §1

HTC116 cells = test: Cell-cycle analysis (DNA content, flow cytometry); type: cell-based; details: treated for 19 hours
Method: HCT116 and Hela cells were obtained from ATCC. For DNA content analysis, 2×10^5 cells were washed twice with PBS and fixed in 70% ethanol. Cells were treated with 100 units/mL RNase A for 20 minutes at 37° C., resuspended in cold PBS containing Alexa Fluor® 405 fluorescent stain (Invitrogen) according to the manufacturer's protocol. Cells were analyzed by flow cytometry. FIG. 1 illustrates (FACS dot plots and histograms) cell-cycle analysis in HTC116 cells treated with PARP-1 inhibitor (4-iodo-3-nitrobenzamide or “BA”) for 19 hours.

KB 3-1 cells = test: Colony-forming assay, KB 3-1 cells; type: cell-based, human; details: KB 3-1 (MDR1 normal) cells, 0-100 μM, 14 days
From the text: (§2) KB-V1 is a vinblastine resistant clone of KB-3-1 human carcinoma cell line (Fojo, A. T., J Whang-Peng, M. M. Gottesman, and I. Pastan. 1985. Amplification of DNA sequences in human multidrugresistant KB carcinoma cells. Proc. Natl. Acad. Sci. USA 82:7661-7665., Shen, D.-W., C. Cardarelli, J lwang, M. Cornwell, N. Richert, S. Ishii, I. Pastan, and M. M. Gottesman. 1986. Multiple drug-resistant human KB carcinoma cells independently selected for high-level resistance to colchicine, Adriamycin, or vinblastine show changes in expression of specific proteins. J. Biol. Chem. 261:7762-7770). Cells were propagated in Eagle minimal essential medium with 10% fetal bovine serum.
(§3) Cells were trypsinized, counted, and diluted to a final concentration of 10^6 cells/ml. Colony-forming assays were performed by plating an appropriate number of cells into culture dishes in triplicates and treated with 0-100 μM of a compound. After 14 days, cells were fixed and stained with 1% crystal violet, and colonies were counted.

KB V-1 cells = test: Colony-forming assay, KB V-1 cells (MDR1 overexpressing); type: cell-based, human; details: KB V-1 (MDR1 overexpressing, vinblastine resistant) cells, 0-100 μM, 14 days
From the text: as §2, §3

adult tumor cell lines = details: a number of adult tumor cell lines; cited from earlier work
[4] = test system: established adult tumor lines s.c. implanted in nude mice; details: administered p.o.; cited from earlier work

Approximate [1] [ng/mL] | Approximate [2] [ng/mL] | Approximate μg/ml Plasma ([3]; canine plasma) [µg/mL] | Approximate μg/ml RBC ([3]; canine red blood cells) [µg/mL] | SMILES | S phase cell cycle (HTC116 cells; compared to control) | number of cells in the G1 phase (HTC116 cells; control 18.6%) [%] | number of cell colonies / cell death (KB 3-1 cells) | number of cell colonies / cell death (KB V-1 cells) | IC50 of tumor cell growth inhibition (adult tumor cell lines) | growth of established adult tumor lines [4] | toxicities [4]
~1.9 | ~3.7 | ~2.1 | ~1.6 | NC(=O)c1ccc(I)c([N+](=O)[O-])c1 [BA, 4-iodo-3-nitrobenzamide] | decrease | 48.6 | dose-dependent cell death; also recorded: reduces the number of cell colonies in a dose-dependant manner | dose-dependent cell death; also recorded: reduces the number of cell colonies in a dose-dependant manner |  |  | 
~12 | ~56 |  |  | NC(=O)c1ccc(I)c(O)c1 [M4 (263 m/z)] |  |  |  |  |  |  | 
 |  |  |  | Nc1ccccc1NC(=O)c1ccc(CNC(=O)OCc2cccnc2)cc1 [MS-27-275] |  |  |  |  | submicromolar range | inhibited the growth | minimal toxicities
